Source: patent US20190376046A1, “METHODS FOR MANIPULATING CELL FATE” (The McLean Hospital Corporation, priority 2017, published 2019)

What was measured:
[1] = test system: CDS fragments of SIRT2 (MREs); experiment: Luciferase reporter assay; type: cell-based, human; settings: 293T cells, psicheck2 SIRT2 CDS fragments
Description: Human SIRT1 or SIRT2 was PCR-amplified from hESCs (H9) or hDFs, respectively, then cloned into the pGEM®-T Easy vector (Promega, Madison, Wis.). The 2A sequence of the Thoseaasigna virus (T2A)-linked EGFP was amplified from pCXLE-EGFP plasmid (#27082; Addgene, Cambridge, Mass.) by […], cloned into the […] vector. The SIRT1 and SIRT2 fragments were then cut off from the corresponding vectors and inserted into the pGEM-T-T2A-EGFP to generate pGEM-T-SIRT1-T2A-EGFP and pGEM-T-SIRT2-T2A-EGFP, respectively. The SIRT1-T2A-EGFP and SIRT2-T2A-EGFP constructs were confirmed by sequencing and then introduced into the EcoRI site of FUW-tetO vector (Addgene), respectively. Human AldoA-Myc constructs, the AldoA fragment was PCR-amplified from hESCs (H9), and then cloned into the pcDNA3.1-Myc/His vector (Invitrogen). For the psicheck2 constructs, the CDS fragments were cloned in downstream of a Renilla luciferase open reading frame. […]
The Promega dual luciferase assay kit was used to perform the luciferase assay according to the manufacturer's instruction. In brief, cell lysates were analyzed for luciferase activity using the dual luciferase system in which two luciferase enzymes, one (from Renilla reniformis) containing the experimental target sequence and another (from firefly) containing the control. […]

SIRT2 [2] = experiment: SIRT2 expression by qRT-PCR and western blot after pre-miRNA transfection; type: cell-based, human; settings: fibroblasts transfected with pre-miRNA
Description: Samples (50 μg) were loaded onto a 12% SDS-PAGE and separated by electrophoresis followed by transfer onto a piece of Immun-Blot PVDF membrane (Bio-Rad, Hercules, Calif.). After transfer, the membrane was blocked at room temperature with Tris-buffered saline (TBS) containing 0.1% Tween-20 and 5% (w/v) skim milk for 3-5 h and then incubated overnight at 4° C. with primary antibody. The membrane was washed three times with TBS containing 0.05% Tween-20 (TBST) and then incubated for 2 h with the appropriate secondary antibody (Pierce, Rockford, Ill.). After washing twice with TBST and once with TBS, bound antibodies were detected by chemiluminescence using the SuperSignal® West Pico kit (Pierce). […]
Total RNA was extracted from cells by using the Direct-zol RNA purification Kit (Zymo research, Irvine, Calif.) and cDNA was synthesized using the ThermoScript™ RT-PCR system (Invitrogen). For quantitative analysis, qRT-PCR (Bio-Rad) was performed using SsoAdvanced SYBR Green supermix (Bio-Rad) with target genes specific primers. […]

SIRT3 = biological target: T1, SIRT3 (Homo sapiens, UniProt Q9NTG7); settings: cited from earlier work
T1 sequence (Q9NTG7 1-399): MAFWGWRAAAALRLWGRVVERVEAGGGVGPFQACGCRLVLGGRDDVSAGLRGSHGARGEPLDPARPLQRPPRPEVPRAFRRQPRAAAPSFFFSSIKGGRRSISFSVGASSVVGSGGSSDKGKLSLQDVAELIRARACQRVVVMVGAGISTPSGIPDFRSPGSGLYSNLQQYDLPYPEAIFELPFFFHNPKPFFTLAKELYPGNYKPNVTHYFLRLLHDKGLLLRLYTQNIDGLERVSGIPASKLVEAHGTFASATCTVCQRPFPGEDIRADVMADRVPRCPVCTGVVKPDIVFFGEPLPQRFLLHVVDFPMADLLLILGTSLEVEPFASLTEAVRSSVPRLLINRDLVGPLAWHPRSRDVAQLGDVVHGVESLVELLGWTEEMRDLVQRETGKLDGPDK

PI3K = settings: read-out: IC50 (PI3K inhibitor); cited from earlier work
SIRT2 [3] = biological target: T2, SIRT2 (Homo sapiens, UniProt Q8IXJ6); settings: relative to SIRT1; cited from earlier work
T2 sequence (Q8IXJ6 1-389): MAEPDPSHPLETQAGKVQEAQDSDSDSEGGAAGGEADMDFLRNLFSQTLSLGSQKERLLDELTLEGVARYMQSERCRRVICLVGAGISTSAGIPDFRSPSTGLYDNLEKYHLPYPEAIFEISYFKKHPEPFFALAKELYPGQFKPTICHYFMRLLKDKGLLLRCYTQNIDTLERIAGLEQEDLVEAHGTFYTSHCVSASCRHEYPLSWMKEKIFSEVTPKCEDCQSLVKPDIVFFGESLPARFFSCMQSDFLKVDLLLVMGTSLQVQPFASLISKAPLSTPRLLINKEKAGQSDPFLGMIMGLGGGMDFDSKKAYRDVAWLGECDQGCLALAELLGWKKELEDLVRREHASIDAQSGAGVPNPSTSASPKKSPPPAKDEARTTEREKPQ

SIRT1 = biological target: T3, SIRT1 (Homo sapiens, UniProt Q96EB6); settings: cited from earlier work
T3 sequence (Q96EB6 1-747): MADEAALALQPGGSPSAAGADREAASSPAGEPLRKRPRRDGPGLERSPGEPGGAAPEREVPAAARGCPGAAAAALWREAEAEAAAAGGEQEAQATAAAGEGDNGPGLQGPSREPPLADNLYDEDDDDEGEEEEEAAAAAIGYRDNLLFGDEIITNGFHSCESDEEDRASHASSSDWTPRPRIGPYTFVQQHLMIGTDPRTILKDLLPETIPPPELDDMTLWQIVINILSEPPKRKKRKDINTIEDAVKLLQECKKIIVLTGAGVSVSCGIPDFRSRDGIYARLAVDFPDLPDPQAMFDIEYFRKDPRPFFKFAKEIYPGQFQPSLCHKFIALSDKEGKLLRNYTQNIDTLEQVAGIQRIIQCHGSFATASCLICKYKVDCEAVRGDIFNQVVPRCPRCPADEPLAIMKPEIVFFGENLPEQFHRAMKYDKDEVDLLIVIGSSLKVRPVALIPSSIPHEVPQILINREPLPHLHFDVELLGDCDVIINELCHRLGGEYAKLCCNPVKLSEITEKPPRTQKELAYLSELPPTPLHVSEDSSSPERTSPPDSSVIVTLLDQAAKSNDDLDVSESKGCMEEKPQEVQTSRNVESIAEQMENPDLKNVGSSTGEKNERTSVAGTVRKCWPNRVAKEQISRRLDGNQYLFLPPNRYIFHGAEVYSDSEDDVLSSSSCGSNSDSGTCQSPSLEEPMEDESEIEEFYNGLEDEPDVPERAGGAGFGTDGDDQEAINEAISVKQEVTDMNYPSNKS

[4] = test system: hPSCs (H9, H7, hiPSC-1, hiPSC-2); experiment: Annexin V/7-AAD staining (apoptosis); type: cell-based, human; settings: pretreatment; hPSCs with Dox-induced SIRT2 OE
[5] = test system: human dermal fibroblasts (hDFs); experiment: Live cell metabolic analysis (Seahorse XF, OCR/ECAR) in fibroblasts; type: cell-based; settings: 0.2 mM; Y4+SIRT2 KD fibroblasts
Description: Oxygen consumption rate (OCR) and extracellular acidification rates (ECAR) were measured using the XFp8 or XF24 analyzer (Seahorse Bioscience, MA) according to the manufacturer's instruction. Briefly, cells were plated into wells of an XF cell culture microplate and incubated at 37° C. in a CO2 incubator for 24 h to ensure attachment. The assay was started after cells were equilibrated for 1 h in XF assay medium supplemented with 10 mM glucose, 5 mM sodium pyruvate and 2 mM glutamine in a non-CO2 incubator. Mitochondrial activity between hDFs and hESCs/parental hDFs and iPSCs were monitored through sequential injections of 1 μM oligomycin, […] FCCP and 1 μM rotenone/antimycin A to calculate basal respiration rates (baseline OCR—rotenone/antimycin A OCR), ATP dependent (basal respiration rate—oligomycin OCR), maximum respiration (FCCP OCR— rotenone/antimycin A OCR), and oxidative reserve (maximum respiration rate—basal respiration rate). Glycolytic processes were measured by serial injections of 10 mM glucose, 1 μM oligomycin, and 100 mM 2-deoxyglucose to calculate basal glycolytic rate, glycolytic capacity (in response to oligomycin), and glycolytic reserve (glycolytic capacity—basal rate). Each plotted value was normalized to total protein quantified using a Bradford protein assay (Bio-Rad).

hDFs = experiment: Human iPSC induction, AP-positive colonies; type: cell-based; settings: 1 mM or higher concentration; fibroblasts
Description: Human dermal fibroblasts (hDFs) were cultured in Dulbecco's modified Minimal Essential Medium (DMEM; Invitrogen, Carlsbad, Calif.) supplemented with 2 mM L-glutamine (Invitrogen), 10% fetal bovine serum (FBS; Invitrogen), 100 U/ml penicillin and 100 μg/ml streptomycin (Invitrogen). For iPSC induction, DMEM/F-12 medium supplemented with 2 mM L-glutamine (Invitrogen), 1 mM […] (Invitrogen), 1× non-essential amino acids (NEAA; Invitrogen), 20% knock-out serum replacement (KSR; Invitrogen), 100 U/ml penicillin, 100 μg/ml streptomycin (Invitrogen) and 10 ng/ml basic fibroblast growth factor (bFGF; Invitrogen) was used as the reprogramming medium. Human ESC lines and hiPSC lines were maintained in Essential 8 medium (Invitrogen) using Matrigel® Matrix (Corning Life Sciences, Tewksbury, Mass.) and passaged using 0.5 mM EDTA (Invitrogen) for gentle dissociation.
Human iPSCs were generated using lentiviral particles by inducible lentiviral vectors or STEMCCA vectors to introduce the OSKM factors (Oct4, Sox2, Klf4, and c-Myc) into fibroblasts^49. ES-like colonies formed after 3 weeks of viral infection and the observed ES-like colonies were handpicked and transferred onto mouse feeder cells (MEF)-plated or Matrigel-coated tissue culture plates to generate iPSC lines. iPSC colonies were mechanically picked until iPSC lines were established.

Molecule: pre-miR-200c-5p: precursor miRNA oligomer of miR-200c-5p, CGUCUUACCCAGCAGUGUUUGG (SEQ ID NO: 1) (further chemistry not given here; listed as Homo sapiens)
- reporter expression of both MREs [1]: significantly decreased
- SIRT2 expression (mRNA and protein) (SIRT2 [2]): significantly decreased

Molecule: CN(C)CCCCC(=O)Nc1ccc(NC(=S)NC(=O)c2ccc(C(C)(C)C)cc2)cc1 [Tenovin-6]
- IC50 (SIRT3; purified human SIRT3 in vitro, read-out: IC50 protein deacetylase activity of SIRT3): 67 µM

Molecule: CCCCCCCCCCCCCC(=S)NCCCC[C@H](NC(=O)OCc1ccccc1)C(=O)Nc1ccccc1 [Thiomyristoyl]
- inhibition of SIRT3 (SIRT3; at 200 μM): does not inhibit SIRT3 even at 200 μM

Molecule: O=c1c(O)c(-c2ccc(O)c(O)c2)oc2cc(O)cc(O)c12 [Quercetin]
- IC50 (PI3K): 2.4 to 5.4 µM

Molecule: O=C(Nc1ccccc1-c1cn2c(CN3CCNCC3)csc2n1)c1cnc2ccccc2n1 [SRT1720]
- fold less potent for SIRT2 (SIRT2 [3]): > 230 fold
- EC50 (SIRT1; cell-free assay, read-out: EC50 (SIRT1 activator)): 0.16 µM
- fold less potent for SIRT3 (SIRT3; relative to SIRT1): > 230 fold

Molecule: CC(=O)N[C@@H](CS)C(=O)O [N-acetyl-L-Cysteine]
- SIRT2-induced cell death [4]: rescued

Molecule: N#C/C(=C\c1ccc(-c2cc(Cl)ccc2Cl)o1)C(=O)Nc1cccc2ncccc12 [AGK2]
- effect on SIRT1 (SIRT1; at 10-fold higher levels than SIRT2 IC50): minimally affects

Molecule: O=CC[C@@H](O)[C@H](O)[C@H](O)CO [2DG, 2-deoxy-glucose]
- glycolytic flux [5]: decreased the glycolytic flux in Y4+SIRT2 KD to the level of Y4 only without 2DG
- generation of iPSC-like colonies (hDFs): completely blocked
